According to patent publication US20030139467A1, “Diuretics containing y-tocotrienol” (priority 2000, published 2003):

How the values were obtained:
[1] = Amount of γ-CEHC excreted in urine after oral γ-tocotrienol or γ-tocopherol in vitamin E-deficient rats; assay type: in vivo, Sprague-Dawley strain male rats; conditions: oral 10 mg/0.5 ml in stripped corn oil, total over 48 hours, versus γ-tocopherol in the same amount, FIG. 2
Method: (§1) Seven-week-old Sprague-Dawley strain male rats, purchased from Nippon Clare Co., Ltd., were preliminarily bred with solid feed CE-2 (Nippon Clare Co., Ltd.) for 1 week and then bred with vitamin E-deficient feed for 4 weeks. The rats were placed in a stainless steel cage/rat, and the breeding room was maintained at a temperature of 22±1° C. in 50 % humidity. The animals were allowed feed and water ad libitum.
(§2) The feed was prepared by adding 10% corn oil (stripped corn oil) from which vitamin E had been removed by molecular distillation, to vitamin E-deficient powdery feed.
(§3) The bred vitamin E-deficient-rats were divided into 2 groups and fasted for 17 hours, and each rat in one group was orally given 10 mg/0.5 ml γ-tocotrienol dissolved in stripped corn oil, while as the control, each rat in the other group was orally given 10 mg/0.5 ml γ-tocopherol in analogous manner. After the administration, the rats in a urine collection group were placed in a metabolic cage/rat, and their urine was collected at 6-hours intervals for 48 hours during which a collection vessel was cooled on dry ice. The rats in a bile collection group were anesthetized with Nembutal in 2 hours after the administration in consideration of absorption time, and the abdomens of the rats were opened with their back fixed under anesthesia and a canula was inserted into the bile duct. […]

[2] = Effect of γ-tocotrienol on urine volume and on excretion of sodium and potassium into urine; assay type: in vivo, SD strain male rats; conditions: for volume of urine, corrected with creatinine: high-salt feed groups, FIG. 4
Method: Seven-week-old SD strain male rats (n=20) were preliminarily bred with solid feed and divided into 2 groups. One group was given vitamin E-deficient feed (AIN-76) and used as a control group. The other group was given high-salt feed prepared by adding 5% common salt to 1 kg vitamin E-deficient feed and used as a group given high-salt (high-Na) feed. Each animal in both the groups was given 20 g feed/day for 1 week and 25 g feed/day during a period of from the second to fourth weeks. 150 ml of purified water was given as drinking water, and the remainder of the water was measured. After 4 weeks, each group was further divided into 2 groups, and each rat in one group was given 10 mg γ-tocotrienol (control +γ-tocotrienol, High-Na+γ-tocotrienol) dissolved in stripped corn oil while the other group i.e. the control was given stripped corn oil (control, High-Na) for 3 consecutive days respectively, and after administration, their urine, while being frozen on dry ice, was collected at 6-hours intervals for 24 hours. The amounts of sodium and potassium in the urine were determined by the atomic absorption method and the amount of γ-CEHC by the ECD-HPLC method.

[3] = Amount of γ-CEHC excreted in bile after oral γ-tocotrienol or γ-tocopherol in vitamin E-deficient rats; assay type: in vivo, Sprague-Dawley strain male rats; conditions: oral 10 mg/0.5 ml in stripped corn oil, bile collected for 24 hours, versus γ-tocopherol, FIG. 3
Method: as §1, §2, §3

SMILES: CC(C)=CCC/C(C)=C/CC/C(C)=C/CCC1(C)CCc2cc(O)c(C)c(C)c2O1 (stereo not drawn) [γ-tocotrienol, 2,7,8-trimethyl-2-(4,8,12-trimethyltrideca-3,7,11-trienyl)chroman-6-ol]
- amount of γ-CEHC excreted in urine for a period of up to 48 hours [1]: significantly higher than in the group given γ-tocopherol
- amount of potassium excreted in urine ([2]; 4 groups (control and high-salt feed, with or without 10 mg γ-tocotrienol), atomic absorption method, FIG. 6): the influence of γ-tocotrienol administration was not observed
- volume of urine, corrected with creatinine ([2]; 10 mg γ-tocotrienol for 3 consecutive days versus stripped corn oil, over 24 hours): tended to be larger in the group given γ-tocotrienol
- volume of urine, corrected with creatinine ([2]; 10 mg γ-tocotrienol versus stripped corn oil, 6 to 12 hours after the administration): significantly increased for 6 to 12 hours after the administration
- amount of sodium excreted in urine ([2]; high-salt group, 10 mg γ-tocotrienol versus stripped corn oil, atomic absorption method, FIG. 5): significantly larger amount of excreted sodium for a period of up to 12 hours after the administration
- γ-CEHC excreted into the bile [3]: larger in the group given γ-tocotrienol than in the group given γ-tocopherol
